# Source: patent publication US20030228627A1, “Assay for p53 function in cells” (priority 2002, published 2003)
# Key:
# p21 promoter [1] = test: Chromatin immunoprecipitation (ChIP) in U2OS cells after DNA damage, p21 promoter; assay type: cell-based, human
# From the text: To address this issue, a chromatin immunoprecipitation (ChIPs) technique was used to examine the temporal order of interaction of a variety of transcription proteins to individual p53-responsive promoters that control cell cycle arrest and apoptosis before and after DNA damage by two different damaging agents. […] For example, before damage the p21 promoter is already poised for transcription by containing bound RNA polymerase II, TATA binding protein (TBP), TFIIB, and TFIIH.
# U2OS cells were grown to 50-60% confluency and treated either with UV-C or doxorubicin, (constant presence in media) for various times before crosslinking. After aspirating the media and washing with phosphate-buffered saline (PBS), cells were crosslinked with a 1% formaldehyde solution in 1×PBS for 15 min at room temperature. Crosslinking was stopped by addition of glycine to 125 mM final concentration. Monolayers were washed twice with cold PBS and harvested in radioimmunoprecipitation assay (RIPA) buffer [150 mM NaCl, 1% v/v Nonidet P-40, 0.5% w/v deoxycholate, 0.1% w/v SDS, 50 mM Tris pH 8, 5 mM EDTA, protease inhibitor cocktail, phosphatase inhibitors (20 mM NaF/0.2 mM sodium orthovanadate), deacetylase inhibitors (5 μM trichostatin A/5 mM sodium butyrate) and 0.5 mM PMSF] to generate a suspension of 10 million cells/ml. Suspensions were sonicated to generate DNA fragments below 500 bp and clarified by centrifugation for 10 min at 12000 g. Protein solutions were quantified for protein and DNA content and adjusted to 1 mg/ml of protein.
# For immunoprecipitation, 1 mg of protein extract was pre-cleared for 2 hrs with 40 μl of a 50% slurry of 50:50 proteinA:proteinG sepharose before addition of indicated antibodies. Antibody (Ab) sources: DO1 (anti-total p53, Oncogene), S15P (anti-Serine 15-phospho-p53, Cell Signaling), AcH4 (Upstate), anti-TAF250 (R. Tjian), anti-TFIIB, -TBP, -RNApol II, -TFIIH (Santa Cruz), anti-serine 2-phospho-RNApol II and anti-serine 5-phospho-RNApol II (Covance). […]
# DNA was precipitated and used as template in semi-quantitative PCR reactions. […]
# [2] = test system: chromatin-assembled p21 promoter; test: In vitro transcription of the chromatin-assembled p21-LUC template with HeLa cell nuclear extract; assay type: biochemical, human
# Procedure: The p21-LUC chromatin template was subjected to in vitro transcription reactions using HeLa cell nuclear extracts as a source of basal initiation components in the presence or absence of p53 and/or p300, as described in the protocol depicted in FIG. 1B. Both factors were added after chromatin assembly was complete (“post assembly”) and incubated with the template prior to in vitro transcription. Addition of p53 alone produced very modest transcriptional activation. […] Neither p53 nor p300 appreciably influenced transcription of naked DNA templates. Identical results were obtained using extracts from another cell line, erythroid K562. Thus, transcriptional activation from the chromatin-assembled p21 promoter in vitro requires p53, acting at a distance of at least 1.38 kb, in combination with a histone acetyl transferase cofactor, p300.
# Chromatin was reconstituted using Drosophila embryonic extracts as described (Bulger, M. and Kadonaga, J. 1994 Methods Mol Genet 5:242-262). After assembly, the chromatin template (500 ng of DNA in 50 μl) was incubated with p53 and/or p300 (typically between 0.2-10 pmol of p53 and 0.2-0.5 pmol of p300), for 30 min at 27° C. For transcription, 20 μl of HeLa cell nuclear extract (typically 8 mg/ml) was added and incubated on ice for 10 min, then reactions proceeded as described (Kadam, S. et al. 2000 Genes & Dev 14:2441-2451). The purified RNA was analyzed by primer extension analysis with primers specific to luciferase and -globin gene (used as an internal control) sequences.
# p21 promoter 5′ site = test: Electrophoretic Mobility Shift Assay (EMSA) of p53 binding to DNA containing the 5′ site of the p21 promoter; set-up: species or system human; settings: compared with the acetylated form of wild-type p53
# From the text: Both probes were ^32P end-labeled using T4 polynucleotide kinase and further purified by 12%-15% polyacrylamide native gels.
# p21 promoter [3] = test: DNase I footprinting of chromatin and DNA (p21-LUC plasmid); assay type: binding, human; settings: DNase I footprinting on p21 promoter DNA or chromatin
# Procedure: To analyze the mechanism by which p300 mediates p53-dependent activation, DNase I chromatin footprinting assays were performed to examine the occupancy of the 5′ and 3′ sites of the p21 promoter under conditions of transcriptional coactivation. Chromatin assembly and factor incubation steps were performed as described above, but the samples were split into three aliquots just before the in vitro transcription reaction. One aliquot was subjected to DNase I digestion, the second was transcribed, and the third was analyzed by Western blot to determine the acetylation status of p53.
# DNA footprinting experiments were performed with chromatin-assembled p21 promoters after ATP depletion and purification by gel filtration using nonsaturating amounts of p53.
# DNase I footprinting was done using three different templates: crude chromatin-assembled mixtures, CL4B-purified chromatin, and naked DNA. […] After incubation of the different templates with the proteins, samples were digested with 33 U/ml (crude chromatin), 1.5 U/ml (purified chromatin) or 0.1 U/ml (naked DNA) DNase I (Boehringer Mannheim) for 75 s at 25° C. Purified DNA fragments were analyzed by primer extension.
# [4] = test system: chromatin-assembled p21 promoter; test: In vitro chromatin immunoprecipitation with anti-acetyl-H4 antibodies; assay type: biochemical, human; settings: p53 and p300
# Procedure: To determine whether p53 influenced the localization of nucleosome acetylation on the p21 promoter by direct recruitment of p300, in vitro chromatin immunoprecipitation assays were performed. p21 promoters were assembled into chromatin using purified components and incubated with p53 and/or p300. Chromatin was digested with micrococcal nuclease and acetylated oligonucleosomes were immunoprecipitated using anti-acetyl-H4 antibodies. Specific p21 plasmid sequences in the immunoprecipitates were detected by PCR amplification or Southern blot. Identical results were obtained from both assays. […] The extent of increased acetylation in different regions of the p21-LUC plasmid varied from 3.4-fold near the 3′ p53 binding site to 1.4-fold in a distal region located 2 kb downstream of the proximal promoter. […] The following decreasing levels of acetylation were found: 3′ site>TATA box=5′ site>>+2 kb.
# Chromatin immunoprecipitation analysis was performed using the anti-acetylated histone H4 antibody (Upstate Biotechnology) according to the manufacturer's recommendations and as previously described (Kundu, T. K. et al. 2000 Mol Cell 6:551-561) with some minor modifications, and as described in Example 2 (see below).
# [5] = test system: nucleosomal histones of the chromatin-assembled p21 promoter; test: Chromatin HAT assay (3H-acetyl CoA incorporation); assay type: biochemical
# Procedure: The quality of p21 promoter chromatin assembled in this purified system was determined by micrococcal nuclease digestion, as for embryo extracts, with similar results. The templates were then incubated with p53 and/or p300 in the presence of ^3H-acetyl CoA and the extent of acetylation monitored by incorporation of radioactivity when analyzed by SDS-PAGE and fluorography. […] A control reaction with equivalent amounts of free histones and p300 was included. Acetylation of p53 and autoacetylation of p300 was also detected.
# Chromatin assembly was performed with recombinant dACF complex and NAP-1 histone chaperone as described (Ito, T. et al. 1999 Genes & Dev 13:1529-1539 and references therein). Chromatin assembly was assessed by micrococcal nuclease digestion and transcriptional repression. After assembly, proteins were added to the chromatin mixtures in the presence of 5 μM ^3H-acetyl CoA (ICN). After incubation for 1 hr at 30° C. with p53 and/or p300, reactions were stopped by boiling in SDS-PAGE loading buffer and analyzed on a 15% SDS-PAGE gel. The gel was fixed and treated with fluorography enhancing solutions (NEN Life Science). The gel was then dried and exposed to autoradiography.
compound,measurement,setting,value
COc1cccc2c1C(=O)c1c(O)c3c(c(O)c1C2=O)C[C@@](O)(C(=O)CO)C[C@@H]3O[C@H]1C[C@H](N)[C@H](O)[C@H](C)O1 [doxorubicin],binding of phosphorylated p53 to the p21 promoter,p21 promoter [1],significantly increased
same,recruitment of TAFII250 to the p21 promoter,p21 promoter [1],no recruitment
same,recruitment of TFIIB to the p21 promoter,p21 promoter [1],active recruitment
"p53KR: mutant p53 in which lysines 370, 372, 373, 381, and 382 within the C-terminal domain were replaced by arginine",ability to activate transcription compared with wild-type p53,[2]; with p300,coactivated by p300 to a similar extent as wild-type p53
"p53ΔC30: C-terminal deleted form of p53, lacking the last 30 amino acid residues",binding activity in EMSA,p21 promoter 5′ site,strongly active
same,binding to the 3′ site,p21 promoter [3],no binding
same,binding to the 5′ site,p21 promoter [3],weaker binding
"p300: full-length human histidine-tagged p300, histone acetyl transferase cofactor, expressed in Sf9 cells",transcriptional activation of the chromatin template,[2]; coincubation with p53,strong synergistic de-repression
same,transcriptional activation of the chromatin template,[2]; p300 alone,unable to achieve such activation
same,extent of increased acetylation,[4]; distal region 2 kb downstream of the proximal promoter,1.4 fold
same,extent of increased acetylation,[4]; near the 3′ p53 binding site,3.4 fold
same,acetylation of nucleosomal histones,[5]; both p53 and p300 present,strong acetylation
same,acetylation of nucleosomal histones,[5]; p300 alone,very weak acetylation
